Data reported in patent US20130011376A1, “Methods for Enhancing Natural Killer Cell Proliferation and Activity” (GAMIDA CELL LTD., priority 2009, published 2013).

Legend:
[1] = test system: cord blood NK cells (CD56+); test: Ex-vivo proliferation of purified cord blood CD56+ NK cells cultured with cytokines and nicotinamide; type: cell-based, human; settings: for proliferation of NK cells relative to growth factors (cytokines) alone: 14 days
Protocol: Cells were obtained from umbilical cord blood after normal full-term delivery (informed consent was given). Samples were collected and frozen within 24 hours postpartum. Briefly, cord blood was collected by gravity from delivered placentas, the leukocyte-rich fraction was separated by density gradient centrifugation, cells mixed with DMSO (10%) and then frozen at −80° C. Prior to use, the cells were thawed in Dextran buffer (Sigma, St. Louis, Mo., USA) containing 2.5% human serum albumin (HSA) (Bayer Corp. Elkhart, Ind., USA), and the cryoprotectant removed.
(§1) Cord blood (CB), bone marrow (BM) or peripheral blood (PB) cells were layered on a Ficoll-Hypaque gradient (1.077 g/mL; Sigma), and centrifuged at 800×g for 30 minutes for separation of the mononuclear cells. The cells in the interface layer were collected and washed three times in phosphate-buffered saline (PBS) (Biological Industries, Israel) containing 0.5% HSA. To purify the CD56+ cells, the mononuclear cell fraction was subjected to two cycles of immunomagnetic bead separation, using a “MiniMACS or CliniMACS CD56 progenitor cell isolation kit” (Miltenyi Biotec Bergisch, Gladbach, Germany), according to the manufacturer's recommendations. Briefly, CD56+ cells are reacted with CD56+ specific magnetic immunobeads, separated and with a magnetic separator, and purified from unbound cells by washing. The purity of the CD56+ population thus obtained is approximately 92%, as evaluated by flow cytometry.
(§2) 2. Purified CD56+ or CD56+CD3− cells from total nuclear or mononuclear cells or from the fraction depleted from CD34+ or CD133+ cells were cultured in culture bags, T-Flasks or 24 well plates at a concentration of 1-100×10^4 cells/ml in MEMα/10% FCS or CellGro SCGM (Cell Genix)/5% Human Serum/LiforCell® FBS Replacement (Lifeblood Products) containing the following human recombinant cytokines:, interleukin-2 (IL-2) (5-50 ng/ml), interleukin-15 (IL-15), FLT-3 or SCF or FLT3 and SCF or IL-2 and IL-15 or IL-2 only (Perpo Tech, Inc., Rocky Hill, N.J., USA), with or without nicotinamide, and incubated at 37° C. in a humidified atmosphere of 5% CO2 in air. The cultures were topped up once or twice a week with the same volume of fresh medium containing growth factors with or without nicotinamide. Eventually cultures can be supplemented once or several times a week with IL-2 and or IL-2 and IL-15. To estimate the number of cells in culture, cell samples were stained with trypan blue for counting. At various time points, samples were taken for FACS analysis to assay the relative fractions of NK cells, CD56+CD3−, CD56+CD3+, CD34+CD56+, CD56+CD16+ and/or CD56+ NKG2A cells.
In order to calculate the number of NK cells on day 0, the total number of cells seeded on day 0 was multiplied by the percent of CD56+/CD3− cells measured by the FACS on day 0.
(§3) To determine total number of cells on day 7, 14 and 21, the cell count/ml was multiplied by the volume of the culture medium. In order to determine the number of NK cells in culture, the total number of cells in culture was multiplied by the percent of CD56+/CD3− cells measured with the FACS on days 7, 14 or 21. To measure fold expansion, total number of NK cells on days 7, 14 and 21 was divided by total number of NK cells seeded in culture on day-0.

[2] = test system: bone marrow derived CD56+ cells; test: Proliferation and subsets of bone marrow derived CD56+ cells in culture; type: cell-based, human
Protocol: Bone marrow (BM) and peripheral blood (PB) cells were layered on a Ficoll-Hypaque gradient (1.077 g/mL; Sigma), and centrifuged at 800×g for 30 min. The mononuclear cells in the interface layer were collected and washed three times in phosphate-buffered saline (PBS) (Biological Industries, Israel) containing 0.5% HSA.
as §1, §2, §3
The cells were washed with a PBS solution containing 1% BSA, and stained (at 4° C. for 30 min) with fluorescein isothiocyanate (FITC)- or phycoerythrin (PE)-conjugated antibodies or allophycocyanin (APC). The cells were then washed in the above buffer and analyzed using a FACScalibur® flow cytometer (Becton Dickinson, San Jose, Calif., USA). The cells were passed at a rate of up to 1000 cells/second, using a 488 nm or 661 nm argon laser beam as the light source for excitation. Emission of 10^4 cells was measured using logarithmic amplification, and analyzed using the CellQuest software (Becton Dickinson). Cells stained with FITC, PE and APC-conjugated isotype control antibodies were used to determine background fluorescence.

[3] = 1 mM, 2.5 mM and 5 mM nicotinamide, 7 days

Compound: NC(=O)c1cccnc1 [nicotinamide]
- NK cell proliferation relative to growth factors (cytokines) alone ([1]; 0.5 mM to 5 mM nicotinamide, three weeks culture): up to 2.5 times
- proliferation of NK cells relative to growth factors (cytokines) alone ([1]; 2.5 mM nicotinamide, IL-2 and IL-15): greater than 4 times
- proliferation of NK cells relative to growth factors (cytokines) alone ([1]; 5 mM nicotinamide, compared with 2.5 mM): even greater
- expansion of cord blood CD56+ NK cultures vs cytokine-only controls ([1]; 1 to 7.5 mM nicotinamide, up to 3 weeks, Flt-3, IL-2 and IL-15): dose-dependent increase in the expansion
- proliferation of NK cells ([1]; all concentrations tested, as early as 14 days of culture): significantly enhanced proliferation
- proliferation of CD56+CD3+ NKT cells [2, 3]: decreased proliferation
- proliferation of the CD56+CD3- NK cell subset [2, 3]: enhancement of proliferation
- proliferation of CD56+CD16+ NK cells ([2]; 2.5 mM and 5 mM nicotinamide, 7 days): most enhanced
- increase of NK cell proliferation between 14 and 21 days ([2]; 2.5 mM nicotinamide): 50%
- fraction of NK cells displaying the CD56+CD16+ phenotype vs cytokines alone ([2]; 2.5 mM nicotinamide, 14 and 21 days): significant increase
- proliferation of NK cells (fold increase) ([2]; 2.5 mM nicotinamide, 14 days): 8 fold increase
- proliferation of NK cells (fold increase) ([2]; 2.5 mM nicotinamide, 21 days): 12 fold increase
- CD56+CD3- NK cells among cultured cells (dominance over CD56+CD3+ NKT cells) ([2]; nicotinamide treated cultures, 21 days): greater than 80%
